The text below walks through data of US10357537B2, “Cyclotides as immunosuppressive agents” (priority 2011, dated 2019).

Each structure is given as a SMILES string. Bridge positions count the residues as written; N and C are the ends. Peptide text beside a SMILES is read from it.

Test [1] has as its system activated human primary PBMC. Nature of the test: Anti-proliferative CFSE cell division assay on anti-CD3/CD28-activated PBMC. As to conditions: CFSE, flow cytometry; extract 50-100 μg/mL, cyclotides 1.8-14 μM, melittin 0.05-1.6 μM. In a few lines:
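Healthy-donor PBMC were CFSE-labelled (5 μM, 10 min, 37° C.), activated with anti-CD3/CD28 and cultured in RPMI 1640 with 10% FCS at 37° C. with the cyclotide mutants/variants. Proliferation was read as cell division by flow-cytometric CFSE histogram analysis.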
A general note: In flow cytometry, cells or beads pass a laser one at a time.

Test [2] relates to TNF-alpha production of activated PBMCs. Briefly: TNF-alpha secretion of PBMC, ELISA-based FACS. As to conditions: 24 h + 6 h PMA/ionomycin; T20K 4 μM, CsA 5 μg/mL. It counts as cell-based, human. As to the method:
FIG. 15. […] Untreated cells were used as control. Following 24 h or 36 h of cultivation, the cells were restimulated with PMA/Ionomycin for further 6 hour. […] The data are presented as mean and standard deviation (SD) of three independent experiments.
Activated cells were resuspended in 50 μl of medium, transferred into a 96-well plate and treated with 10 μg/ml PHA-L. After incubation for 24 h cells were re-stimulated with PMA (50 ng/ml) und ionomycin (500 ng/ml) for 6 h. Next, the cells were transferred into Eppendorf tubes, centrifuged (5 min, 3000 RPM, 20° C.) und 50 μl of the supernatant was again transferred into new tubes and stored at −20° C. Production of cytokines was measured and quantified using the FlowCytomix™ kit according to manufacturer's instructions.
Therefore it is of interest to determine whether cyclotides only have anti-proliferative effects or also affect the effector function of T-lymphocytes, which would directly relate to changes in the IFN-gamma and TNF-alpha production. Therefore, the production of both cytokines of cyclotide-treated, activated PBMCs at an early time point after PBMC activation was tested.

The test system of a further test is human primary T-cells. Nature of the test: Ca2+ release, Fura-2. It counts as cell-based. To be noted: T20K 4 μM. Here is the method:
FIG. 17. Ca^2+ release in human Jurkat and T-cells. Jurkat cells (A) and T-cells (B) 1×10^6 were loaded with 1 μM Fura-2 and 0.02% Puronic F-127 for 30 minutes at 37° C. Cells were centrifuged for 5 minutes at 1200 rpm and resuspended in media [RPMI 1640 with 10% FCS, penicillin (100 U/mL) and streptomycin ([…])]. 100 μL of cell suspension were transferred to a black 96-well plate with a clear flat-bottom. Briefly before analysis the fluorometer Synergy H4 (BioTek) was tempered to 37° C. The fluorescence time course was then measured with: extinction 340/380 nm and emission 510 nm in 30 seconds intervals, continuously shaking. Ca^2+ influx was initiated by adding compounds to the cells (illustrated by the arrow). To receive maximum Ca^2+ release cells were stimulated with PMA (50 ng/mL) and Ionomycin (500 ng/mL) and T-cells additionally with PHA-L (10 μg/mL). For lowest Ca^2+ levels, cells remained untreated.
Jurkat cells T-cells were treated as described for FIG. 17, supra.

Test [3] deals with EAE-induced C57BL/6J mice. Briefly: EAE in C57BL/6J mice treated with T20K, clinical score. In kind it is in vivo, mouse. Here is the method: FIG. 19. Effect on clinical EAE score. After induction of EAE, mice treated with T20K and naïve mice were scored every second day, starting at day 10.
Mice (n=10/group) were treated on day (−7), 0, 7 with 200 μg/100 μL/mouse T20K solubilized in sterile PBS intraperitoneally (i.p.), as indicated in the figure. On day 0 they were immunized subcutaneously with myelin oligodendrocyte glycoprotein (MOG35-55, 1 mg/mL) and complete Freud's adjuvant (CFA, 10 mg/mL) mixed at equal parts. Therefore 70 μL were injected into the left and right flank. Additionally mice received 100 μL pertussis toxin (2 μg/mL) i.p. on day 0 and again on day 2. Beginning at day 10 mice were scored every second day. Weight was also measured at day (−7), 0, 7 and on the same day during scoring.

Test [4] relates to spleenocytes restimulated with MOG35-55. Nature of the test: Cytokine release of spleenocytes from treated EAE mice, ELISA. In kind it is cell-based, mouse. Here is the method:
FIG. 21. Effect on cytokine release of ex vivo isolated PBMC at day 3. Spleenocytes of sacrificed mice were isolated and restimulated with MOG35-55 (30 μg/mL) for three days or left untreated. Supernatants of these cells were used for analyzing cytokine release in ELISAs. In (A) interleukin 2 release was highest in splenic T-cells isolated from naïve mouse group that were restimulated with MOG, correlating with disease course. […] There was hardly any cytokine IL4 detectable (E), opposing a TH2 immune response, which was expected.
Spleens of sacrificed mice were taken and transferred into a 6 cm Petri Dish with 5 mL sterile PBS. To receive a spleenocyte suspension, spleens were meshed and filtered through 70 μm nylon sieve. Cells were centrifuged at 1200 rpm for 5 minutes and resuspended in RPMI 1640 media supplemented with 10% fetal calf serum (FCS), 2 mM L-glutamine, penicillin (100 U/mL), and streptomycin (100 μg/mL). Spleenocytes were cultivated at a concentration of 3×10^6/mL in a 48-well flat-bottom plate (500 μL/well). Cells were stimulated with 30 μg/mL MOG35-55 or left untreated and incubated at 37° C. for three days. Supernatants and cells were taken stored at −20° C. until further experiments. […] After 12 hours MOG or T20K was added to appropriate wells. Supernatants were stored after 24 hours and after 48 hours at −20° C.
Supernatants of stimulated spleenocytes were analyzed for their IL2, IL17, INFγ, IL4 and IL22 cytokine release using anti-mouse antibodies for ELISA from eBioscience according to the manufacturer's instructions. The color reaction was evaluated at an optical density of 450 nm by the microplate reader Synergy H4 (BioTek).
(In an ELISA, binding on a coated surface is turned into a signal by an enzyme label.)

On to `CC(C)C[C@@H]1NC(=O)CNC(=O)[C@H](CC(N)=O)NC(=O)[C@H](CCCNC(=N)N)NC(=O)[C@H]([C@@H](C)O)NC(=O)[C@@H]2CSSC[C@@H]3NC(=O)[C@H]([C@@H](C)O)NC(=O)CNC(=O)CNC(=O)[C@H](C(C)C)NC(=O)[C@@H]4CSSC[C@H](NC(=O)[C@H](CCCCN)NC(=O)[C@H](CSSC[C@H](NC(=O)[C@H](C(C)C)NC(=O)[C@@H]5CCCN5C1=O)C(=O)NCC(=O)N[C@@H](CCC(=O)O)C(=O)N[C@@H]([C@@H](C)O)C(=O)N4)NC(=O)CNC(=O)[C@@H]1CCCN1C(=O)[C@H]([C@@H](C)O)NC(=O)[C@H](CC(N)=O)NC3=O)C(=O)N[C@@H](CO)C(=O)N[C@@H](Cc1c[nH]c3ccccc13)C(=O)N1CCC[C@H]1C(=O)N[C@@H](C(C)C)C(=O)N2` [Kalata T20K] (cyclo(CGETCVGGTCNTPGCKCSWPVCTRNGLPV); disulfide 1-15, 5-17, 10-22 (inferred); ring closure inferred), for which the “cell division / proliferation of activated PBMC (in words)” value in test [1] is “show anti-proliferative capacity”. For the same compound, the “TNF-alpha expression as compared to the control, 24 h” value in test [2] is recorded as 23%±10.6. In addition, the “Ca2+ release in human primary T-cells” value in the test with human primary T-cells was “increasing Ca^2+ release”. For the same compound, the “clinical EAE score / symptoms” value in test [3] (T20K 200 μg/100 μL/mouse i.p. on day -7, 0 or 7, vs naive group) was “delayed and minor symptoms of EAE”. The “prophylactic effect on clinical EAE score” value in test [3] (mice treated seven days before EAE induction, Dunnett's test) is “demonstrate significantly the prophylactic effect”. Besides, in test [4] (T20K (7), after MOG stimulation, vs naive group), the “IL2 release of spleenocytes from mice treated at day 7” value is given as “IL2 release was lower than in naïve group”. Moreover, in test [4] (T20K (-7, 0)), the “IL17, IL22 and INFγ release of spleenocytes from pre-treated mice” value was “inhibitory effect could also be demonstrated towards the cytokines IL17, IL22 and INFγ in T-cells of T20K (−7, 0) treated mice, although not significantly”. Further, the “IL2 production of spleenocytes from pre-treated mice” value in test [4] (T20K day -7 or 0, MOG35-55 30 μg/mL, three days) is on record as “significant inhibition of the IL2 production”.
